In patent publication US12662491B2 (Redona Therapeutics, Inc., priority 2020, dated 2026):

Target: T1, Zcchc11 enzyme (Homo sapiens, UniProt Q5TAX3)
T1 construct: made in house; host or cells: HEK293 cells (Zcchc11); E. coli Rosetta II (LIN28A)
T1 sequence (Q5TAX3 212-1420): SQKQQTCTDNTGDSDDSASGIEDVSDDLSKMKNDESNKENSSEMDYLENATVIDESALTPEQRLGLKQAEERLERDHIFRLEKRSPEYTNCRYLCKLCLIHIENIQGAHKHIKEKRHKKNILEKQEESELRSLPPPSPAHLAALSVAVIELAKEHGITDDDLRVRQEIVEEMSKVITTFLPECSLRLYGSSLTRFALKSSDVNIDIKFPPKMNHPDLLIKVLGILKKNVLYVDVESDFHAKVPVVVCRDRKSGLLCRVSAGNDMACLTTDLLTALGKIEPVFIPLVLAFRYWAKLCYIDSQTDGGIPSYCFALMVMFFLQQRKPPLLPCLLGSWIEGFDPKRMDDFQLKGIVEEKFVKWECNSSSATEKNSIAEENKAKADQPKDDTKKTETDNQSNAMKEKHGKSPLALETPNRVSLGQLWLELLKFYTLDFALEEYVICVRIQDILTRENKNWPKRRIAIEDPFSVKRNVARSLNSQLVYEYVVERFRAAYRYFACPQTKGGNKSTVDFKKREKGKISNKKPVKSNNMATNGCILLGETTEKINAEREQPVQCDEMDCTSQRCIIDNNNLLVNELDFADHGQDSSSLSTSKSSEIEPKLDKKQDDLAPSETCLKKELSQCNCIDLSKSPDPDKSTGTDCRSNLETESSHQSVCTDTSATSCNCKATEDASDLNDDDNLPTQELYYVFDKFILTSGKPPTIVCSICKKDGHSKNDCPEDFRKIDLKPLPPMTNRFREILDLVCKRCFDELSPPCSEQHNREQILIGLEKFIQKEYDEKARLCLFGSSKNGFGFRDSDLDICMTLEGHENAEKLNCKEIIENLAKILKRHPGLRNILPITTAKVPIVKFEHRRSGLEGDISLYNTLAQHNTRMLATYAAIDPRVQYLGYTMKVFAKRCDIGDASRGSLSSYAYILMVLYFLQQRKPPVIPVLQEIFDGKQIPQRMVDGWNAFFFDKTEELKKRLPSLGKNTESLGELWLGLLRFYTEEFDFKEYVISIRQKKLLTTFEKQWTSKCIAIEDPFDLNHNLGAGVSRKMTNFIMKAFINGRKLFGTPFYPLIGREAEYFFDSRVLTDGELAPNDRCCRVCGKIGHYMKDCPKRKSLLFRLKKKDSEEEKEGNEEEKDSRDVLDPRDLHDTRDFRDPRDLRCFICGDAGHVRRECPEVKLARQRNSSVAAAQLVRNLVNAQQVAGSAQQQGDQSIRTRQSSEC
Test: TUTase assay (Zcchc11 assay, Lin28a-dependent polyuridylation of pre-let-7)
Type: biochemical
Details: Lin28a-dependent Zcchc11 (Z11) TUTase activity; read-out: Potency Lin28a-dep Z11 IC50
In short: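 Human Zcchc11 residues 212-1420 (HEK293-expressed, MBP tag cleaved, C-terminal FLAG) at 0.2 nM, with 10 nM full-length human LIN28A and 2 nM 5′-fluorescein pre-let-7, preincubated with compound 30 min at room temperature. Reaction started with 5 uM UTP plus 4 nM 3′-rhodamine A20 quench probe; fluorescein loss read kinetically, IC50 from initial rates.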

`O=C(O)c1cn(-c2cnn(C3CN(CCF)C3)c2)c2cc(N3CCC[C@@H]3COc3ncccc3Cl)c(Cl)cc2c1=O` [Compound 244, 6-chloro-7-[(2R)-2-[[(3-chloropyridin-2-yl)oxy]methyl]pyrrolidin-1-yl]-1-[1-[1-(2-fluoroethyl)azetidin-3-yl]pyrazol-4-yl]-4-oxoquinoline-3-carboxylic acid] and `O=C(O)c1cn(-c2cnn(C3CNC3)c2)c2cc(N3CCC[C@@H]3COc3ncccc3F)c(Cl)cc2c1=O` [Compound 246, 1-[1-(azetidin-3-yl)pyrazol-4-yl]-6-chloro-7-[(2R)-2-[[(3-fluoropyridin-2-yl)oxy]methyl]pyrrolidin-1-yl]-4-oxoquinoline-3-carboxylic acid] cannot be ordered by IC50: ≤ 1000 nM for the first, ≤ 1000 nM for the second.

`Cc1cccnc1OC[C@H]1CCCN1c1cc2c(cc1C#N)c(=O)c(C(=O)O)cn2-c1cnn(C)c1` [Compound 248, 6-cyano-1-(1-methylpyrazol-4-yl)-7-[(2R)-2-[[(3-methylpyridin-2-yl)oxy]methyl]pyrrolidin-1-yl]-4-oxoquinoline-3-carboxylic acid] and `Cn1cc(Cn2cc(C(=O)O)c(=O)c3cc(Cl)c(N4CCC[C@@H]4COc4ncccc4Cl)cc32)cn1` [Compound 252, 6-chloro-7-[(2R)-2-[[(3-chloropyridin-2-yl)oxy]methyl]pyrrolidin-1-yl]-1-[(1-methyl-pyrazol-4-yl)methyl]-4-oxoquinoline-3-carboxylic acid] cannot be ordered by IC50: ≤ 1000 nM for the first, ≤ 1000 nM for the second.

`CN(C)C1CN(c2ccc(-n3cc(C(=O)O)c(=O)c4ccc(N5C(=O)CC[C@@H]5COc5ncccc5Cl)cc43)cn2)C1` [Compound 249, (R)-7-(2-(((3-chloropyridin-2-yl)oxy)methyl)-5-oxopyrrolidin-1-yl)-1-(6-(3-(dimethyl-amino)azetidin-1-yl)pyridin-3-yl)-4-oxo-1,4-dihydro-quinoline-3-carboxylic acid] and `CN(C)C1CN(c2ccc(-n3cc(C(=O)O)c(=O)c4cc(Cl)c(N5CC(C)(C)C[C@@H]5COc5ncccc5Cl)cc43)cn2)C1` [Compound 254, 6-chloro-7-[(2R)-2-[[(3-chloropyridin-2-yl)oxy]methyl]-4,4-dimethyl-pyrrolidin-1-yl]-1-[6-[3-(dimethyl-amino)azetidin-1-yl]pyridin-3-yl]-4-oxoquinoline-3-carboxylic acid] cannot be ordered by IC50: 1000 to 10000 nM for the first, ≤ 1000 nM for the second.

`CN(C)C1CN(c2ccc(-n3cc(C(=O)O)c(=O)c4cc(C#N)c(N5CCC[C@@H]5COc5ncccc5Cl)nc43)cn2)C1` [Compound 250, 7-[(2R)-2-[[(3-chloropyridin-2-yl)oxy]methyl]pyrrolidin-1-yl]-6-cyano-1-[6-[3-(dimethyl-amino)azetidin-1-yl]pyridin-3-yl]-4-oxo-1,8-naphthyridine-3-carboxylic acid] and `CN(C)C1CN(c2ccc(-n3cc(C(=O)O)c(=O)c4cc(C#N)c(N5C(COc6ncccc6F)CCC5(C)C)cc43)cn2)C1` (stereo not drawn) [Compound 264, 6-cyano-1-(6-(3-(dimethyl-amino)azetidin-1-yl)pyridin-3-yl)-7-(5-(((3-fluoropyridin-2-yl)oxy)methyl)-2,2-dimethyl-pyrrolidin-1-yl)-4-oxo-1,4-dihydro-quinoline-3-carboxylic acid] cannot be ordered by IC50: ≤ 1000 nM for the first, 1000 to 10000 nM for the second.

`CN(C)C1CN(c2cc(Cl)c(-n3cc(C(=O)O)c(=O)c4cc(Cl)c(N5CCC[C@@H]5COc5ncccc5Cl)cc43)cn2)C1` [Compound 253, 6-chloro-1-[4-chloro-6-[3-(dimethyl-amino)azetidin-1-yl]pyridin-3-yl]-7-[(2R)-2-[[(3-chloropyridin-2-yl)oxy]methyl]pyrrolidin-1-yl]-4-oxoquinoline-3-carboxylic acid] and `CN(C)C1CN(c2ccc(-n3cc(C(=O)O)c(=O)c4cc(Cl)c(N5CCC[C@@H]5COc5nc6ccn(C)c6cc5Cl)cc43)cn2)C1` [Compound 256, 6-chloro-7-[(2R)-2-[([6-chloro-1-methyl-pyrrolo [3,2-b]pyridin-5-yl]oxy)methyl]pyrrolidin-1-yl]-1-[6-[3-(dimethyl-amino)azetidin-1-yl]pyridin-3-yl]-4-oxoquinoline-3-carboxylic acid] cannot be ordered by IC50: ≤ 1000 nM for the first, ≤ 1000 nM for the second.

`CN(C)C1CN(c2ccc(-n3cc(C(=O)O)c(=O)c4cc(Cl)c(N5CCC[C@@H]5COc5ncc6nc[nH]c6c5Cl)cc43)cn2)C1` [Compound 255, 6-chloro-7-[(2R)-2-[({7-chloro-1H-imidazo [4,5-c]pyridin-6-yl}oxy)methyl]pyrrolidin-1-yl]-1-{6-[3-(dimethyl-amino)azetidin-1-yl]pyridin-3-yl}-4-oxoquinoline-3-carboxylic acid] and `CN(C)C1CN(c2ccc(-n3cc(C(=O)O)c(=O)c4cc(Cl)c(N5CCC(C)(C)C5COc5ncccc5Cl)cc43)cn2)C1` (stereo not drawn) [Compound 259, 6-chloro-7-(2-(((3-chloropyridin-2-yl)oxy)methyl)-3,3-dimethyl-pyrrolidin-1-yl)-1-(6-(3-(dimethyl-amino)azetidin-1-yl)pyridin-3-yl)-4-oxo-1,4-dihydro-quinoline-3-carboxylic acid] cannot be ordered by IC50: ≤ 1000 nM for the first, ≤ 1000 nM for the second.

`COc1ccc(Cl)c(OCC2N(c3cc4c(cc3Cl)c(=O)c(C(=O)O)cn4-c3ccc(N4CC(N(C)C)C4)nc3)CCC2(C)C)n1` (stereo not drawn) [Compound 257, 6-chloro-7-(2-{[(3-chloro-6-methoxy-pyridin-2-yl)oxy]methyl}-3,3-dimethyl-pyrrolidin-1-yl)-1-{6-[3-(dimethyl-amino)azetidin-1 yl]pyridin-3-yl}-4-oxoquinoline-3-carboxylic acid] and `COc1ccc(Cl)c(OCC23CC(CN2c2cc4c(cc2Cl)c(=O)c(C(=O)O)cn4-c2ccc(N4CC(N(C)C)C4)nc2)C3)n1` [Compound 258, 6-chloro-7-(1-(((3-chloro-6-methoxy-pyridin-2-yl)oxy)methyl)-2-azabicyclo [2.1.1]hexan-2-yl)-1-(6-(3-(dimethyl-amino)azetidin-1-yl)pyridin-3-yl)-4-oxo-1,4-dihydro-quinoline-3-carboxylic acid] cannot be ordered by IC50: ≤ 1000 nM for the first, 1000 to 10000 nM for the second.

`COc1ccnc(OC[C@H]2C[C@H]3C[C@H]3N2c2cc3c(cc2F)c(=O)c(C(=O)O)cn3-c2ccc(N(C)C)nc2)c1Cl` [Compound 265, 7-((1R,3R,5R)-3-(((3-chloro-4-methoxy-pyridin-2-yl)oxy)methyl)-2-azabicyclo [3.1.0]hexan-2-yl)-1-(6-(dimethyl-amino)pyridin-3-yl)-6-fluoro-4-oxo-1,4-dihydro-quinoline-3-carboxylic acid] and `COc1ccnc(OC[C@H]2C[C@H]3C[C@H]3N2c2cc3c(cc2Cl)c(=O)c(C(=O)O)cn3-c2ccc(N(C)C)nc2)c1Cl` [Compound 267, 6-chloro-7-((1R,3R,5R)-3-(((3-chloro-4-methoxy-pyridin-2-yl)oxy)methyl)-2-azabicyclo [3.1.0]hexan-2-yl)-1-(6-(dimethyl-amino)pyridin-3-yl)-4-oxo-1,4-dihydro-quinoline-3-carboxylic acid] cannot be ordered by IC50: ≤ 1000 nM for the first, ≤ 1000 nM for the second.

`COc1ccc(F)c(OC[C@H]2C[C@H]3C[C@H]3N2c2cc3c(cc2Cl)c(=O)c(C(=O)O)cn3-c2ccc(N(C)C)nc2)n1` [Compound 266, 6-chloro-1-(6-(dimethyl-amino)pyridin-3-yl)-7-((1R,3R,5R)-3-(((3-fluoro-6-methoxy-pyridin-2-yl)oxy)methyl)-2-azabicyclo [3.1.0]hexan-2-yl)-4-oxo-1,4-dihydro-quinoline-3-carboxylic acid] and `COc1ccc(F)c(OC[C@H]2C[C@H]3C[C@H]3N2c2cc3c(cc2F)c(=O)c(C(=O)O)cn3-c2ccc(N(C)C)nc2)n1` [Compound 268, 1-(6-(dimethyl-amino)pyridin-3-yl)-6-fluoro-7-((1R,3R,5R)-3-(((3-fluoro-6-methoxy-pyridin-2-yl)oxy)methyl)-2-azabicyclo [3.1.0]hexan-2-yl)-4-oxo-1,4-dihydro-quinoline-3-carboxylic acid] cannot be ordered by IC50: ≤ 1000 nM for the first, ≤ 1000 nM for the second.
